Read-outs that look alike come from different tables or passages of the source.
Tests used:
[1] = Equilibrium solubility in water by HPLC; conditions: for equilibrium solubility in water (25° C.): HPLC
[2] = format: physicochemical; conditions: for Content of CBT/% / Content of OXA/%: 60° C.; for crystal structure: high temperature (60° C.) test
[3] = format: physicochemical; conditions: for crystal structure: light stability test; for Content of CBT/% / Content of OXA/%: light
[4] = test system: Human fibroblast-like synovial cell rheumatoid arthritis (HFLS-RA) cells; assay: Proliferation of HFLS-RA cells; format: cell-based
Method: Human fibroblast-like synovial cell rheumatoid arthritis (HFLS-RA) cells were cultured in vitro and their proliferation was measured by quantifying the number of cells 48 h after treatment.

[5] = test system: Human MH7A synovial cells; assay: Proliferation of MH7A cells; format: cell-based
Method: Human MH7A synovial cells were cultured in vitro and measured by quantifying the number of cells 48 h after treatment Proliferation.

[6] = 48 h after treatment, 1.563-100 μg/mL

Structure (SMILES) | Content of CBT/% ([2]; Day 0) | Content of CBT/% ([2]; Day 1) | Content of CBT/% ([2]; Day 3) | Content of CBT/% ([2]; Day 5) | Content of CBT/% ([2]; Day 10) | Content of CBT/% ([2]; Day 15) | crystal structure [2] | crystal structure [3] | Content of OXA/% ([2]; Day 0) | Content of OXA/% ([2]; Day 1) | Content of OXA/% ([2]; Day 3) | Content of OXA/% ([2]; Day 5) | Content of OXA/% ([2]; Day 10) | Content of OXA/% ([2]; Day 15) | Content of OXA/% ([3]; Day 0) | Content of OXA/% ([3]; Day 1) | Content of OXA/% ([3]; Day 3) | Content of OXA/% ([3]; Day 5) | Content of OXA/% ([3]; Day 10) | Content of OXA/% ([3]; Day 15) | also measured
N.N.O=C([O-])C1(C(=O)[O-])CCC1.[Pt+2] [CBT, carboplatin, reference compound] | 100% | 99.76% | 99.29% | 99.16% | 99.27% | 99.82% | unchanged | unchanged | – | – | – | – | – | – | – | – | – | – | – | – | equilibrium solubility in water (25° C.) [1]: 12.7 mg/mL; Content of CBT/% ([3]; Day 0): 100%; Content of CBT/% ([3]; Day 1): 99.37%; Content of CBT/% ([3]; Day 3): 99.84%; Content of CBT/% ([3]; Day 5): 99.31%; Content of CBT/% ([3]; Day 10): 98.29%; Content of CBT/% ([3]; Day 15): 98.82%
OCC1OC(Oc2cc(O)cc(C=Cc3ccc(O)cc3)c2)C(O)C(O)C1O.[NH2][Pt]1([NH2])[O]C(=O)C2(CCC2)C(=O)[O]1 (centres unmarked) [CBT-PDT, carboplatin-polydatin cocrystal] | 100% | 100% | 99.27% | 99.08% | 99.69% | 99.83% | unchanged | unchanged | – | – | – | – | – | – | – | – | – | – | – | – | equilibrium solubility in aqueous solution compared with oxaliplatin or carboplatin, respectively ([1]; aqueous solution, versus parent platinum drug): higher; equilibrium solubility in water (25° C.) [1]: 16.2 mg/mL; Content of CBT/% ([3]; Day 0): 100%; Content of CBT/% ([3]; Day 1): 100%; Content of CBT/% ([3]; Day 3): 100%; Content of CBT/% ([3]; Day 5): 99.60%; Content of CBT/% ([3]; Day 10): 99.72%; Content of CBT/% ([3]; Day 15): 99.29%
CCN(CC)CCCC(C)Nc1ccnc2cc(Cl)ccc12.[NH2][Pt]1([NH2])[O]C(=O)C2(CCC2)C(=O)[O]1 (centres unmarked) [CBT-U72, carboplatin-chloroquine cocrystal] | 100% | 100% | 99.66% | 99.84% | 99.67% | 99.97% | unchanged | – | – | – | – | – | – | – | – | – | – | – | – | – | Content of CBT/% ([3]; Day 0): 100%; Content of CBT/% ([3]; Day 1): 100%; Content of CBT/% ([3]; Day 3): 99.20%; Content of CBT/% ([3]; Day 5): 99.24%; Content of CBT/% ([3]; Day 10): 99.57%; Content of CBT/% ([3]; Day 15): 99.92%
O=C1[O][Pt]2([NH][C@@H]3CCCC[C@H]3[NH]2)[O]C1=O [OXA, oxaliplatin, reference compound] | – | – | – | – | – | – | unchanged | unchanged | 100% | 98.36% | 99.33% | 99.18% | 99.09% | 98.21% | 100% | 98.87% | 99.32% | 96.89% | 99.45% | 98.01% | IC50, proliferation of HFLS-RA [4, 6]: 4.56 µg/mL; proliferation of HFLS-RA cells inhibited ([4]; FIG. 6): 99%; IC50, proliferation of MH7A [5, 6]: 8.91 µg/mL; proliferation of MH7A cells inhibited ([5]; FIG. 7): 99%
O=C(O)C1(C(=O)O)CCC1.O=C1[O][Pt]2([NH]C3CCCCC3[NH]2)[O]C1=O (centres unmarked) [OXA-CBDA, oxaliplatin-1,1-cyclobutane dicarboxylic acid cocrystal] | – | – | – | – | – | – | – | – | 100% | 100% | 99.98% | 99.12% | 99.45% | 99.57% | 100% | 100% | 100% | 99.56% | 99.97% | 99.30% | –
O=C1[O][Pt]2([NH]C3CCCCC3[NH]2)[O]C1=O.OCC1OC(Oc2cc(O)cc(C=Cc3ccc(O)cc3)c2)C(O)C(O)C1O (centres unmarked) [OXA-PDT, oxaliplatin-polydatin cocrystal] | – | – | – | – | – | – | unchanged | unchanged | 100% | 100% | 100% | 99.73% | 99.63% | 99.87% | 100% | 100% | 99.97% | 99.88% | 99.44% | 99.91% | –
CCN(CC)CCCC(C)Nc1ccnc2cc(Cl)ccc12.O=C1[O][Pt]2([NH]C3CCCCC3[NH]2)[O]C1=O (centres unmarked) [OXA-U72, oxaliplatin-chloroquine cocrystal] | – | – | – | – | – | – | unchanged | – | 100% | 100% | 99.38% | 99.46% | 99.33% | 99.46% | 100% | 100% | 99.21% | 99.64% | 99.33% | 99.64% | –

— patent publication US20250387405A1 (priority 2021, published 2025)
